Measured values: publication PMC8518382, “Identification of a Bromodomain‐like Region in 15‐Lipoxygenase‐1 Explains Its Nuclear Localization” (Angewandte Chemie (International Ed. in English), 2021)

Experiments:
15-LOX-1 [1] = target: T1, 15-LOX-1 (Homo sapiens, UniProt P16050); experiment: Sandwich ELISA of Labelox B biotinylation in A549 cell lysate, 15-LOX-1 capture; assay type: biochemical; design: the endogenous LOXs were captured on an anti‐LOX antibody precoated 96‐well plate; endogenous in cells; host or cells: A549 cell lysate; details: HRP-streptavidin detection, read-out: EC50 of labeling
T1 sequence (P16050 1-662): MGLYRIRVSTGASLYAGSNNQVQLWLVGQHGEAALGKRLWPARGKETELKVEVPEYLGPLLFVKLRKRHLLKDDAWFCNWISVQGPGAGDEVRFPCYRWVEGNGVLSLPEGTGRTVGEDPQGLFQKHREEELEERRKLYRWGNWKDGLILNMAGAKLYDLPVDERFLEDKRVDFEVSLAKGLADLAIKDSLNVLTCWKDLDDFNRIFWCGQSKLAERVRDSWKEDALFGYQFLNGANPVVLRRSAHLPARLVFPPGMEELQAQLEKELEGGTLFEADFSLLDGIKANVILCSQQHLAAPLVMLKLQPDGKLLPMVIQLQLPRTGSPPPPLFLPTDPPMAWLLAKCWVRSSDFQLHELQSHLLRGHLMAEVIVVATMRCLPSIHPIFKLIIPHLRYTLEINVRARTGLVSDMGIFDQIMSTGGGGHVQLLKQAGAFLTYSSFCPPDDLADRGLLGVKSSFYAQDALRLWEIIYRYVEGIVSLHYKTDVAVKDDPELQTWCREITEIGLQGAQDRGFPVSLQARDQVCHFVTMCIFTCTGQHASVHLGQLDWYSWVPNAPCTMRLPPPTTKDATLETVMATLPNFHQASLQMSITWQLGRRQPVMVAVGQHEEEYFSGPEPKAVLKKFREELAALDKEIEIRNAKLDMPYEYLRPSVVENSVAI
Procedure: Labelox B efficiently labels endogenous LOXs. Lipoxygenase labeling by Labelox B was investigated using cell‐based assays. As a first step, labeling efficiency was estimated in intact RAW 264.7 macrophage cells that were treated with Labelox B in concentrations ranging between 1 μM and 100 μM with incubation times between 0.5 h and 6 h. […] As a next step, a sandwich ELISA assay was established in order to find proof that probe Labelox B is indeed labeling proteins with lipoxygenase enzyme activity. Towards this aim, A549 cell lysates were treated with sub‐micromolar to micromolar concentrations of Labelox B. Subsequently, the endogenous LOXs were captured on an anti‐LOX antibody precoated 96‐well plate followed by detection of Labelox B mediated biotinylation using HRP‐conjugated streptavidin. […] Furthermore, probe Labelox B enabled visualization of localized LOX activity in living cells (Figure 2 c). […] The fluorescence intensity increased with increasing doses of Labelox B and labeling was observed throughout the cells in the cytoplasm and the nucleus of A549.
Figure 2 Labelox B labels endogenous LOXs in a dose‐ and time‐dependent manner. a, b) Western blot analysis of Labelox B labeled LOXs in intact RAW 264.7 for indicated doses and time points. […] The pictures were captured by a Leica DM4000b fluorescence microscope.

15-LOX-1 [2] = target: T1, 15-LOX-1; experiment: Kitz-Wilson kinetic analysis of 15-LOX-1 inactivation; assay type: biochemical; design: His-tag (N); made in house; host or cells: E. coli BL21(DE3)
Procedure: Subsequently, Kitz‐Wilson analysis was performed to distinguish the equilibrium binding constant (K i) from the rate of covalent inactivation (k i). The different bis‐alkynes provided remarkably constant k i’s that varied by a factor 3 or less, whereas the K i’s varied by a factor 200 (Table 1). […] Improved non‐covalent binding is an important characteristic for activity‐based labeling because it implies improved specific recognition properties to the target of interest. Therefore, inhibitor 3 has been used for further development of a probe for activity‐based labeling of lipoxygenase activity with 15‐LOX‐1 as a reference enzyme. For convenient discussion, we named inhibitor 3, “Labelox B”. […]
(§1) described in the IC50 determination assay. Michaelis-Menten plots, Lineweaver-Burk plots, Km, and Vmax, are generated using GraphPad Prism 8.3.0.
1.5. Kits-Wilson kinetic analysis
The probes inhibit the 15-LOX-1 enzyme with a two-step reaction. First, a probe binds to an enzyme to get a reversible complex, E*I. The dissociation constant of inhibitor (Ki) is from the formation of E*I. Then, the probe forms a covalent bond with the enzyme, which generates an irreversible complex, E-I. The inactivation rate constant (ki) is to describe the rate of E-I generation. To determine these inactivation parameters, Kitz-Wilson analysis was employed. The procedure has been detailed previously

[3] = system: endogenous LOXs in intact RAW 264.7 macrophage cells; experiment: Western blot of Labelox B labeling in intact RAW 264.7 macrophage cells; assay type: cell-based
Description: as §1
1.5. Kits-Wilson kinetic analysis […]
enzyme to get a reversible complex, E*I. The dissociation constant of inhibitor (Ki) is from the formation […]
E-I. The inactivation rate constant (ki) is to describe the rate of E-I generation. To determine these inactivation parameters, Kitz-Wilson analysis was employed. The procedure has been detailed previously […]
1.6. Immunoblotting Analysis
Raw 264.7 cells were seeded in a 6-well plate at a density of 5x10^5 cells per well in high glucose DMEM media supplemented with 1% penicillin/streptomycin, 10% fetal bovine serum (FBS) (Costar Europe, Badhoevedrop, The Netherlands) at 37°C and cultured overnight. Afterward, cells were treated with the desired concentration of Labelox B at the expected time. Then, the cells were harvested and lysed with RIPA buffer containing 1X PIC. […]
Later, 30 μl of each sample was used for immunoblotting analysis. […] After washing, the blotting bands were detected with enhanced chemiluminescence (ECL) solution (GE Healthcare, Amersham, UK). […]
A549 cells were lysed by RIPA buffer supplemented with 1x PIC. After sonication and centrifugation, the supernatant was collected, and the protein concentration was determined by a Pierce BCA Protein Assay Kit (Thermo Fisher Scientific, USA). […]

LOXs = system: LOXs; design: method as in PMID 17942241, PMID 16500106; details: redox inhibitor for LOXs; read-out: IC50 in vitro; cited from earlier work

Row | EC50 (15-LOX-1 [1]) [µM] | k i (rate of covalent inactivation) (15-LOX-1 [2]) [min⁻¹] | Ki (15-LOX-1 [2]; read-out: K i (equilibrium binding constant)) [µM] | Cell permeability ([3]; labels effectively in half an hour at 25 μM) | SMILES | Labeling of proteins with the size of endogenous LOXs ([3]; 1 μM to 100 μM, 0.5 h to 6 h) | IC50 (LOXs) [µM]
1 | ~3.5 | 0.0191 ± 0.0038 | 0.5 ± 0.14 | sufficiently cell‐permeable | CCCCCC#CCC#CCOC(=O)CCCC[C@@H]1SC[C@@H]2NC(=O)N[C@@H]21 [Labelox B (3)] | dose and time‐dependent manner | –
2 | – | – | – | – | O=c1cc(-c2ccccc2)oc2cc(O)c(O)c(O)c12 [Baicalein] | – | < 4
